# Measurements published in patent publication US7772180B2, “Hepatitis C virus inhibitors” (Bristol-Myers Squibb Company, priority 2006, dated 2010).
# Read-outs that look alike come from different tables or passages of the source.
# How the values were obtained:
# [1] = molecular target: T1, HCV NS3/4A protease complex, BMS strain (UniProt P27958, species not given/STRAIN_BMS); experiment: FRET peptide assay to monitor HCV NS3/4A proteolytic activity (BMS strain); type: biochemical, Hepatitis C virus (genotype 1a); settings: read-out: HCV Protease (IC50), NS3/4A BMS strain
# T1 construct: other: NS3/4A BMS strain; activity range class; numeric values, unit not given; said of H77 and J4L6S; fused on or other part: A three-lysine solubilising tail at the C-terminus of NS4A; A His tag is implied by the pET21b vector and Ni-NTA purification; Both are printed for the H77 and J4L6S constructs and apply to BMS by inference
# T1 sequence (P27958 1027-1657, change not shown, one chain of several): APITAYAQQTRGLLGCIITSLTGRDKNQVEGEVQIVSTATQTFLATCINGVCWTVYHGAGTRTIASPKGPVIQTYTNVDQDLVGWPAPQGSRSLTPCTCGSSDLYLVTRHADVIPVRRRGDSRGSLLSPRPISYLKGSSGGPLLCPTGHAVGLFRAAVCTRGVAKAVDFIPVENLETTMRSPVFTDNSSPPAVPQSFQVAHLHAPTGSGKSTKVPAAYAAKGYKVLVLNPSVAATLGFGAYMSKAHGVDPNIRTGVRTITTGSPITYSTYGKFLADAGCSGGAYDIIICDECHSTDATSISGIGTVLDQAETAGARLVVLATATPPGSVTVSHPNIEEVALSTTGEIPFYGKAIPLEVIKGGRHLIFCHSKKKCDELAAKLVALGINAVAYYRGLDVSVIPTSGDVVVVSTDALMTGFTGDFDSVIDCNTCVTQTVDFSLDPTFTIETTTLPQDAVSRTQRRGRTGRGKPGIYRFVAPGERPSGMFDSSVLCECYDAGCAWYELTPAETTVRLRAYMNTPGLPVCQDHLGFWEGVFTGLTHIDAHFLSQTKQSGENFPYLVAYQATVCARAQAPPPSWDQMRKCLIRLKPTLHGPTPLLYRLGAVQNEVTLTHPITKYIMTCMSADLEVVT
# Excerpt: HCV NS3 protease complexes, derived from the BMS strain, H77 strain or J4L6S strain, were generated, as described below. These purified recombinant proteins were generated for use in a homogeneous assay (see below) to provide an indication of how effective compounds of the present disclosure would be in inhibiting HCV NS3 proteolytic activity.
# Serum from an HCV-infected patient was obtained from Dr. T. Wright, San Francisco Hospital. An engineered full-length cDNA (compliment deoxyribonucleic acid) template of the HCV genome (BMS strain) was constructed from DNA fragments obtained by reverse transcription-PCR (RT-PCR) of serum RNA (ribonucleic acid) and using primers selected on the basis of homology between other genotype 1a strains. From the determination of the entire genome sequence, a genotype 1a was assigned to the HCV isolate according to the classification of Simmonds et al. (See P Simmonds, K A Rose, S Graham, S W Chan, F McOmish, B C Dow, E A Follett, P L Yap and H Marsden, J. Clin. Microbiol., 31(6), 1493-1503 (1993)). […] The infectious clones, H77 (1a genotype) and J4L6S (1b genotype) were obtained from R. Purcell (NIH) and the sequences are published in Genbank (AAB67036, see Yanagi, M., Purcell, R. H., Emerson, S. U. and Bukh, J. Proc. Natl. Acad. Sci. U.S.A. 94(16), 8738-8743 (1997); AF054247, see Yanagi, M., St Claire, M., Shapiro, M., Emerson, S. U., Purcell, R. H. and Bukh, J. Virology 244 (1), 161-172. (1998)).
# NS3/4A protease complex-containing fractions were pooled and loaded on a desalting column Superdex-S200 pre-equilibrated with buffer D (25 mM HEPES, pH 7.5, 20% glycerol, 300 mM NaCl, 0.2% Triton X-100, 10 mM βME). Sample was loaded at a flow rate of 1 mL/min. NS3/4A protease complex-containing fractions were pooled and concentrated to approximately 0.5 mg/ml. The purity of the NS3/4A protease complexes, derived from the BMS, H77 and J4L6S strains, were judged to be greater than 90% by SDS-PAGE and mass spectrometry analyses. The enzyme was stored at −80° C., thawed on ice and diluted prior to use in assay buffer.
# The purpose of this in vitro assay was to measure the inhibition of HCV NS3 protease complexes, derived from the BMS strain, H77 strain or J4L6S strain, as described above, by compounds of the present disclosure. This assay provides an indication of how effective compounds of the present disclosure would be in inhibiting HCV NS3 proteolytic activity.
# In order to monitor HCV NS3/4A protease activity, an NS3/4A peptide substrate was used. The substrate was RET S1 (Resonance Energy Transfer Depsipeptide Substrate; AnaSpec, Inc. cat #22991) (FRET peptide), described by Taliani et al. in Anal. Biochem. 240(2):60-67 (1996). The sequence of this peptide is loosely based on the NS4A/NS4B natural cleavage site for the HCV NS3 protease except there is an ester linkage rather than an amide bond at the cleavage site. The peptide also contains a fluorescence donor, EDANS, near one end of the peptide and an acceptor, DABCYL, near the other end. The fluorescence of the peptide is quenched by […] resonance energy transfer (RET) between the donor and the acceptor, but as the NS3 protease cleaves the peptide the products are released from RET quenching and the fluorescence of the donor becomes apparent.
# The peptide substrate was incubated with one of the three recombinant NS3/4A protease complexes, in the absence or presence of a compound of the present disclosure. The inhibitory effects of a compound were determined by monitoring the formation of fluorescent reaction product in real time using a Cytofluor Series 4000.
# Assay buffer: 50 mM HEPES, pH 7.5; 0.15 M NaCl; 0.1% Triton; 15% Glycerol; 10 mM βME. Substrate: 2 μM final concentration (from a 2 mM stock solution in DMSO stored at −20° C.). HCV NS3/4A protease type 1a (1b), 2-3 nM final concentration (from a 5 μM stock solution in 25 mM HEPES, pH 7.5, 20% glycerol, 300 mM NaCl, 0.2% Triton-X100, 10 mM βME). […]
# [2] = test system: HCV replicon (strain 1b) in HUH-7 cells; experiment: HCV replicon FRET assay; type: cell-based, Hepatitis C virus; settings: Hepatitis C virus, Huh-7, read-out: HCV Pro Replicon (EC50), HCV replicon cell assay
# Excerpt: An HCV replicon whole cell system was established as described by Lohmann V, Korner F, Koch J, Herian U, Theilmann L, Bartenschlager R., Science 285(5424): 110-3 (1999). This system enabled us to evaluate the effects of our HCV Protease compounds on HCV RNA replication. Briefly, using the HCV strain 1b sequence described in the Lohmann paper (Assession number: AJ238799), an HCV cDNA was synthesized by Operon Technologies, Inc. (Alameda, Calif.), and the full-length replicon was then assembled in plasmid pGem9zf(+) (Promega, Madison, Wis.) using standard molecular biology techniques. The replicon consists of (i) the HCV 5′ UTR fused to the first 12 amino acids of the capsid protein, (ii) the neomycin phosphotransferase gene (neo), (iii) the IRES from encephalomyocarditis virus (EMCV), and (iv) HCV NS3 to NS5B genes and the HCV 3′ UTR. Plasmid DNAs were linearized with ScaI and RNA transcripts were synthesized in vitro using the T7 MegaScript transcription kit (Ambion, Austin, Tex.) according to manufacturer's directions. In vitro transcripts of the cDNA were transfected into the human hepatoma cell line, HUH-7. […] Resulting cell lines were characterized for positive and negative strand RNA production and protein production over time.
# The HCV replicon FRET assay was developed to monitor the inhibitory effects of compounds described in the disclosure on HCV viral replication. HUH-7 cells, constitutively expressing the HCV replicon, were grown in Dulbecco's Modified Eagle Media (DMEM) (Gibco-BRL) containing 10% Fetal calf serum (FCS) (Sigma) and 1 mg/ml G418 (Gibco-BRL). Cells were seeded the night before (1.5×10^4 cells/well) in 96-well tissue-culture sterile plates. Compound and no compound controls were prepared in DMEM containing 4% FCS, 1:100 Penicillin/Streptomysin (Gibco-BRL), 1:100 L-glutamine and 5% DMSO in the dilution plate (0.5% DMSO final concentration in the assay). Compound/DMSO mixes were added to the cells and incubated for 4 days at 37° C. After 4 days, cells were first assessed for cytotoxicity using alamar Blue (Trek Diagnotstic Systems) for a CC50 reading. The toxicity of compound (CC50) was determined by adding 1/10th volume of alamarBlue to the media incubating the cells. After 4 hours, the fluorescence signal from each well was read, with an excitation wavelength at 530 nm and an emission wavelength of 580 nm, using the Cytofluor Series 4000 (Perspective Biosystems). Plates were then rinsed thoroughly with Phosphate-Buffered Saline (PBS) (3 times 150 μl).
SMILES,IC50 ([1]; activity range class),EC50 ([2]; activity range class),"IC50 ([1]; numeric values, unit inferred)","EC50 ([2]; numeric values, unit inferred)"
"C=C[C@@H]1C[C@]1(NC(=O)[C@@H]1C[C@@H](Oc2ncc(OC)c3ccc(Cl)cc23)CN1C(=O)[C@@H](Nc1ccc(C#N)cc1)C(C)(C)C)C(=O)NS(=O)(=O)C1CC1 [205 first isomer, N-(4-cyanophenyl)-3-methyl-L-valyl-(4R)-4-((7-chloro-4-methoxy-1-isoquinolinyl)oxy)-N-((1R,2S)-1-((cyclopropylsulfonyl)carbamoyl)-2-vinylcyclopropyl)-L-prolinamide]",0.6 to 20 nM,3 to 100 nM,–,–
"C=C[C@@H]1C[C@]1(NC(=O)[C@@H]1C[C@@H](Oc2nccc3cc(OC)ccc23)CN1C(=O)C(Nc1ccc(OC)nc1)C(C)(C)C)C(=O)NS(=O)(=O)C1CC1 (single isomer, unassigned) [407 first isomer]",0.6 to 20 nM,100 to 1000 nM,–,–
"C=C[C@@H]1C[C@]1(NC(=O)[C@@H]1C[C@@H](Oc2nccc3cc(OC)ccc23)CN1C(=O)[C@H](Nc1nc(C)cc(C)n1)C(C)C)C(=O)NS(=O)(=O)C1CC1 [6 first isomer, N-(4,6-dimethyl-2-pyrimidinyl)-D-valyl-(4R)—N-((1R,2S)-1-((cyclopropylsulfonyl)carbamoyl)-2-vinylcyclopropyl)-4-((6-methoxy-1-isoquinolinyl)oxy)-L-prolinamide]",20 to 200 nM,> 1000 nM,–,–
"C=C[C@@H]1C[C@]1(NC(=O)[C@@H]1C[C@@H](Oc2ncc(OC)c3ccc(Cl)cc23)CN1C(=O)C(Nc1ccc(C)nc1)C(C)(C)C)C(=O)NS(=O)(=O)C1CC1 (single isomer, unassigned) [26 first isomer]",0.6 to 20 nM,3 to 100 nM,–,–
"C=C[C@@H]1C[C@]1(NC(=O)[C@@H]1C[C@@H](Oc2nccc3cc(OC)ccc23)CN1C(=O)[C@@H](Nc1ccccc1)C(C)(C)C)C(=O)NS(=O)(=O)C1CC1 [15 first isomer, 3-methyl-N-phenyl-L-valyl-(4R)—N-((1R,2S)-1-((cyclopropylsulfonyl)carbamoyl)-2-vinylcyclopropyl)-4-((6-methoxy-1-isoquinolinyl)oxy)-L-prolinamide]",0.6 to 20 nM,3 to 100 nM,–,–
"C=C[C@@H]1C[C@]1(NC(=O)[C@@H]1C[C@@H](Oc2nccc3cc(OC)ccc23)CN1C(=O)[C@H](Nc1cccnc1)C(C)(C)C)C(=O)NS(=O)(=O)C1CC1 [Compound 13B, 3-methyl-N-3-pyridinyl-D-valyl-(4R)—N-((1R,2S)-1-((cyclopropylsulfonyl)carbamoyl)-2-vinylcyclopropyl)-4-((6-methoxy-1-isoquinolinyl)oxy)-L-prolinamide]",–,–,1200 nM,5740 nM
"C=C[C@@H]1C[C@]1(NC(=O)[C@@H]1C[C@@H](Oc2ncc(OC)c3ccc(Cl)cc23)CN1C(=O)[C@H](Nc1ccccc1F)C(C)(C)C)C(=O)NS(=O)(=O)C1CC1 [234 second isomer, N-(2-fluorophenyl)-3-methyl-D-valyl-(4R)-4-[(7-chloro-4-methoxy-1-isoquinolinyl)oxy]-N-((1R,2S)-1-{[(cyclopropylsulfonyl)amino]carbonyl}-2-vinylcyclopropyl)-L-prolinamide]",> 200 nM,> 1000 nM,–,–
"C=C[C@@H]1C[C@]1(NC(=O)[C@@H]1C[C@@H](Oc2ncc(OC)c3ccc(Cl)cc23)CN1C(=O)[C@@H](Nc1ccc(C(=O)N(C)C)cc1)C(C)(C)C)C(=O)NS(=O)(=O)C1CC1 [221 first isomer, N-(4-(dimethylcarbamoyl)phenyl)-3-methyl-L-valyl-(4R)-4-((7-chloro-4-methoxy-1-isoquinolinyl)oxy)-N-((1R,2S)-1-((cyclopropylsulfonyl)carbamoyl)-2-vinylcyclopropyl)-L-prolinamide]",0.6 to 20 nM,100 to 1000 nM,–,–
"C=C[C@@H]1C[C@]1(NC(=O)[C@@H]1C[C@@H](Oc2nccc3cc(OC)ccc23)CN1C(=O)[C@@H](Nc1nc(CC)cs1)C(C)(C)C)C(=O)NS(=O)(=O)C1CC1 [Compound 35, N-(4-ethyl-1,3-thiazol-2-yl)-3-methyl-L-valyl-(4R)—N-((1R,2S)-1-((cyclopropylsulfonyl)carbamoyl)-2-vinylcyclopropyl)-4-((6-methoxy-1-isoquinolinyl)oxy)-L-prolinamide]",0.6 to 20 nM,3 to 100 nM,–,–
"C=C[C@@H]1C[C@]1(NC(=O)[C@@H]1C[C@@H](Oc2ncc(OC)c3ccc(Cl)cc23)CN1C(=O)[C@@H](Nc1ccc(S(=O)(=O)NCC)cc1)C(C)(C)C)C(=O)NS(=O)(=O)C1CC1 [223 first isomer, N-(4-(ethylsulfamoyl)phenyl)-3-methyl-L-valyl-(4R)-4-((7-chloro-4-methoxy-1-isoquinolinyl)oxy)-N-((1R,2S)-1-((cyclopropylsulfonyl)carbamoyl)-2-vinylcyclopropyl)-L-prolinamide]",0.6 to 20 nM,100 to 1000 nM,–,–
